Measured values published in US20250127835A1, “COMPOSITION BASED ON PLANT EXTRACTS AND USE THEREOF FOR THE PREVENTION AND/OR TREATMENT OF CARBOHYDRATE AND LIPID DYSMETABOLISM” (ESSERRE PHARMA SRL, priority 2021, published 2025).
Structures can show the parent of a compound that is named as a salt.

Legend:
[1] = system: adult individuals with moderate hypercholesterolaemia; assay: 6-arm, double-blind, placebo-controlled pilot clinical study, 12 weeks; assay type: in vivo, humans
Procedure: All the enrolled subjects were subjected, 14 days prior to enrolment (T-14), to a pre-enrolment visit with blood tests to assess meeting the inclusion criteria. The individuals who at TO met the inclusion criteria underwent a randomization visit at which the respective treatment was assigned and blood tests were performed in relation to the reference parameters. The study lasted 12 weeks. At the end of treatment (T12), the subjects were subjected to an end-of-study visit and blood tests. The parameters investigated in the study are: Body mass index, systolic and diastolic blood pressure, blood glucose, total cholesterol, LDL, HDL, triglycerides, GOT, GPT, gGT, creatinine phosphokinase (CPK). […] The treatment called “placebo” consists of a tablet equal in shape, weight, colour size and flavour to the active tablet but containing “inert” material for the desired effect and consists of: microcrystalline cellulose, magnesium stearate, silicon dioxide, calcium phosphate, chlorophylline dye, yellow iron oxide dye, yellow coating agents. The treatments related to groups C, D, E and F consist of one tablet equal in appearance to the tablets of groups A and B but consisting of the single active ingredient, as described above in addition to excipients. The treatment tablets were packaged in anonymous white bottles, showing only the batch number consisting of an alphanumeric code and the expiration date. Neither the investigator nor the study subjects knew the contents of the bottles. The bottles of each treatment were placed in cardboard boxes containing a letter in a sealed envelope with reference to the batch number and content, to be opened only in case of need, as in cases of serious adverse events. After randomization, each study participant was given the vial with 30 tablets for the specific treatment of the group to which they belonged. All the subjects were instructed to take one tablet in the evening before bed for 12 weeks.

[2] = system: streptozocin-induced diabetic rats; conditions: 6 mg/kg for 5 weeks; cited from earlier work
[3] = system: 86 subjects of which 60 with type II diabetes mellitus; conditions: 100 mg per day, after 3 months of supplementation; cited from earlier work
[4] = system: hyperglycaemic subjects; conditions: 300 mg daily dose; cited from earlier work
[5] = after 12 weeks, printed as reduction of x% or as −x%

Cc1ncc(C[n+]2csc(CCO)c2C)c(N)n1 [THIAMINE, thiamine hydrochloride]
reductions in the parameters of interest ([1]; after 12 weeks): did not show statistically significant reductions
increase of HDL cholesterol (HDL-C) ([1]; after 12 weeks of treatment): no changes
reduction of LDL cholesterol (LDL-C) ([1]; after 12 weeks of treatment): did not achieve a percentage reduction
reduction of fasting plasma glucose (FPG) [1, 5]: not detected
reduction of triglycerides (TG) [1, 5]: −1%
HDL-c [2]: increases
insulin [2]: increases
malonyldialdehyde [2]: reduces
serum glucose [2]: reduces
total cholesterol [2]: reduces
triglycerides [2]: reduces
total cholesterol [3]: significantly reduces
diastolic pressure [4]: reduces
systolic pressure [4]: reduces
